# Measured values reported in article PMC5706701, “Development of a homogenous high-throughput assay for inositol hexakisphosphate kinase 1 activity” (PLoS ONE, 2017).
# Counter-ions that a name gives are not always drawn. Like-named read-outs stand apart in the source and are kept apart here.
# Target: T1, Human IP6K1 (Homo sapiens, UniProt Q92551)
# T1 construct: GST (N, cleaved yes); made in house; host or cells: C43 E. coli, pGEX-6P-2
# Experiment: IP6K1 high-throughput screen of the Sigma LOPAC (ADP-Glo Max, single point);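 note: final compound concentration 10µM in 5% DMSO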
# Type: biochemical
# [1] = Sigma LOPAC single-point screen, ADP-Glo Max raw signal per well
# [2] = Sigma LOPAC single-point screen, Z-score from plate average and StDev
# [3] = LOPAC single-point screen, ADP-Glo Max raw signal per well
# [4] = LOPAC single-point screen, Z-score from raw signal with plate average and StDev
# [5] = LOPAC single-point screen, ADP-Glo Max luminescence raw signal per well
# [6] = LOPAC single-point screen, Z-score relative to plate average and StDev
# [7] = LOPAC single-point screen, Z-score against plate average and StDev
# [8] = LOPAC single-point screen, Z-score from plate average and StDev
# T1 sequence (Q92551 whole entry): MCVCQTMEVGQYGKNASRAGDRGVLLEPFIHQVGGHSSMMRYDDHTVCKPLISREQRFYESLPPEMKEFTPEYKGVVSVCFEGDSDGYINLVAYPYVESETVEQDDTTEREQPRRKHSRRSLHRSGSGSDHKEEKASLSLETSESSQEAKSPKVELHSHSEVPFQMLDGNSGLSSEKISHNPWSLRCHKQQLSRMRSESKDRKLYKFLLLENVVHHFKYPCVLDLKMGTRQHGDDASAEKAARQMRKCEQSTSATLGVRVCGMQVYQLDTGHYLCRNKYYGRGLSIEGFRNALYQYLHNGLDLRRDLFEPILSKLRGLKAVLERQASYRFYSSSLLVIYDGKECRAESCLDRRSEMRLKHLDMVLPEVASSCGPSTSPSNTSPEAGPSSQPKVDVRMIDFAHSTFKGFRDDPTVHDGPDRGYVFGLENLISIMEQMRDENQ
structure (smiles),measurement,setting,value
Br.Br.NC(N)=NCCSSCCN=C(N)N [Guanidinoethyl disulfide dihydrobromide],Raw Signal,[1],61778
same,Z-score,[2],1.343
CC(C)C(=O)c1c(C(C)C)nn2ccccc12 [Ibudilast],Raw Signal,[3],53701
same,Z-score,[4],-0.2977
CN(C)CCCO[C@@H]1[C@H]2OC(C)(C)O[C@H]2O[C@@H]1[C@H](O)CO [Amiprilose hydrochloride],Raw Signal,[5],53728
same,Z-score,[6],-0.7371
O=c1[nH]c2cc(C(F)(F)F)ccc2n1-c1cc(C(F)(F)F)ccc1O [NS-1619],Raw Signal,[5],51434
same,Z-score,[6],-0.4973
"CCCn1c(=O)c2c(ncn2C)n(CCC)c1=O [1,3-Dipropyl-7-methylxanthine]",Raw Signal,[1],58298
same,Z-score,[2],0.6359
Br.Oc1cc2c(c(Cl)c1O)CCNCC2c1ccccc1 (racemic) [(±)-6-Chloro-PB hydrobromide],Raw Signal,[3],55203
same,Z-score,[4],-0.1595
O=c1cc(-c2ccc(O)c(O)c2)oc2cc(O)cc(O)c12 [Luteolin],Raw Signal,[5],50800
same,Z-score,[6],-0.6038
CCCCc1ccc(C(=O)O)nc1 [Fusaric acid],Raw Signal,[5],50850
same,Z-score,[6],-0.8767
NC(N)=NCc1cccc(I)c1.NC(N)=NCc1cccc(I)c1.O=S(=O)(O)O [m-Iodobenzylguanidine hemisulfate],Raw Signal,[1],60474
same,Z-score,[2],1.022
N=C(N)N/N=C/c1c(Cl)cccc1Cl [Guanabenz acetate],Raw Signal,[3],54722
same,Z-score,[7],-0.09038
Cc1nnc(SCC2=C(C(=O)O)N3C(=O)[C@@H](NC(=O)Cn4cnnn4)[C@H]3SC2)s1 [Cefazolin sodium],Raw Signal,[3],59148
same,Z-score,[7],0.2175
CSC(N)=NCCC[C@H](N)C(=O)O [S-Methyl-L-thiocitrulline acetate],Raw Signal,[3],53034
same,Z-score,[4],-0.2284
C#CCN[C@H](C)Cc1ccccc1.Cl [R-(-)-Desmethyldeprenyl hydrochloride],Raw Signal,[5],52026
same,Z-score,[6],-0.6379
C1CNCCN1.COc1cc(C(O)CO)ccc1O.COc1cc(C(O)CO)ccc1O (stereo not drawn) [MHPG piperazine],Raw Signal,[1],58694
same,Z-score,[2],0.7163
Br.Cc1cccc(C2CN(C)CCc3c2cc(O)c(O)c3Cl)c1 (stereo not drawn) [SKF 83959 hydrobromide],Raw Signal,[5],52693
same,Z-score,[6],-0.6471
"C[C@]12CCC(=O)C=C1CC[C@@H]1[C@@H]2CC[C@]2(C)C(=O)CC[C@@H]12 [4-Androstene-3,17-dione]",Raw Signal,[3],58885
same,Z-score,[7],0.1712
CCN(CC)CCOCCOC(=O)C1(c2ccccc2)CCCC1 [Carbetapentane citrate],Raw Signal,[5],67390
same,Z-score,[8],1.669
CCc1ccccc1OC[C@@H](O)CN[C@H]1CCCc2ccccc21.O=C(O)C(=O)O [SR 59230A oxalate],Raw Signal,[3],55204
same,Z-score,[4],-0.1593
O=C(O)CC[N+](=O)[O-] [3-Nitropropionic acid],Raw Signal,[3],53138
same,Z-score,[4],-0.211
NN=C(N)N.NN=C(N)N.O=S(=O)(O)O [Aminoguanidine hemisulfate],Raw Signal,[3],58107
same,Z-score,[7],0.03415
"CN1[C@@H]2CC[C@H]1C[C@@H](OC(=O)c1cc(Cl)cc(Cl)c1)C2 [3-Tropanyl-3,5-dichlorobenzoate]",Raw Signal,[3],53877
same,Z-score,[4],-0.4171
Br.C=CCN1CCc2c(cc(O)c(O)c2Br)[C@@H](c2ccccc2)C1 [R(+)-6-Bromo-APB hydrobromide],Raw Signal,[3],58651
same,Z-score,[7],0.13
C[C@]12CCC(=O)C=C1CC[C@@H]1[C@@H]2C(=O)C[C@@]2(C)[C@H]1CC[C@]2(O)C(=O)CO [Cortisone],Raw Signal,[1],65066
same,Z-score,[2],1.26
CC1=NS(=O)(=O)c2cc(Cl)ccc2N1 [Diazoxide],Raw Signal,[1],58351
same,Z-score,[2],0.6466
O=C(NCC1CCCCN1)c1cc(OCC(F)(F)F)ccc1OCC(F)(F)F (stereo not drawn) [Flecainide acetate],Raw Signal,[5],50763
same,Z-score,[6],-0.8944
N=C(N)N1CCc2ccccc2C1 [Debrisoquin sulfate],Raw Signal,[5],61933
same,Z-score,[8],1.3741
Oc1ccc(/C=C/c2cc(O)cc(O)c2)cc1 [Resveratrol],Raw Signal,[3],54146
same,Z-score,[4],-0.3648
CC(C)NCC(O)COc1ccc(CC(N)=O)cc1 (racemic) [(±)-Atenolol],Raw Signal,[3],56468
same,Z-score,[4],-0.2545
Cc1cccc(C)c1OCC(C)N.Cl (stereo not drawn) [Mexiletene hydrochloride],Raw Signal,[5],50431
same,Z-score,[6],-0.6658
Cl.c1ccc(CN(CC2=NCCN2)c2ccccc2)cc1 [Antozoline hydrochloride],Raw Signal,[5],54212
same,Z-score,[6],-0.6519
Cl.Nc1c2c(nc3ccccc13)CCCC2,Raw Signal,,49916
same,Z-score,,-1.409
Cl.NCCc1ccc(S(=O)(=O)F)cc1,Raw Signal,[3],58918
same,Z-score,[7],0.177
C[N+](C)(C)CC=O [Betaine aldehyde chloride],Raw Signal,[3],58689
same,Z-score,[7],0.1367
Br.CCSC(=N)N [S-Ethylisothiourea hydrobromide],Raw Signal,[3],55596
same,Z-score,[7],0.08712
C[C@H]1C[C@H]2[C@@H]3CCC4=CC(=O)C=C[C@]4(C)[C@@]3(F)[C@@H](O)C[C@]2(C)[C@@]1(O)C(=O)CO [Betamethasone],Raw Signal,[3],58863
same,Z-score,[7],0.1673
CC(=O)OCC(=O)[C@@]1(O)CC[C@H]2[C@@H]3CCC4=CC(=O)CC[C@]4(C)[C@H]3C(=O)C[C@@]21C [Cortisone 21-acetate],Raw Signal,[3],59780
same,Z-score,[7],0.3288
CC(C)NC[C@@H](O)c1ccc(O)c(O)c1.O=C(O)C(O)C(O)C(=O)O [S(+)-Isoproterenol (+)-bitartrate],Raw Signal,[3],55551
same,Z-score,[7],0.1945
COCCOC(=O)C1=C(C)NC(C)=C(C(=O)OC(C)C)C1c1cccc([N+](=O)[O-])c1 (stereo not drawn) [Nimodipine],Raw Signal,[3],55940
same,Z-score,[7],0.2599
CCOC(=O)[N-]c1cn(N2CCOCC2)n[o+]1 [Molsidomine],Raw Signal,[1],60839
same,Z-score,[2],1.083
C#C[C@]1(O)CC[C@H]2[C@@H]3CCC4=Cc5oncc5C[C@]4(C)[C@H]3CC[C@@]21C [Danazol],Raw Signal,[3],54357
same,Z-score,[4],-0.1645
C[C@@H]1O[C@@H](O[C@H]2C[C@@H](O)[C@]3(CO)[C@H]4[C@H](O)C[C@]5(C)[C@@H](C6=CC(=O)OC6)CC[C@]5(O)[C@@H]4CC[C@]3(O)C2)[C@H](O)[C@H](O)[C@H]1O [Ouabain],Raw Signal,[1],56928
same,Z-score,[2],0.4259
CN/C(=N\c1ccc(C2=NNC(=O)CC2C)cc1)NC#N (stereo not drawn) [SKF 94836],Raw Signal,[3],55520
same,Z-score,[4],-0.09788
COc1cccc(C(=O)NCCN2CCN(c3ccc(Cl)cc3)CC2)c1,Raw Signal,[3],55564
same,Z-score,[4],-0.4137
NCCCNCCSP(=O)(O)O [Amifostine],Raw Signal,[5],55102
same,Z-score,[6],-0.4951
N[C@@H](Cn1cc(I)c(=O)[nH]c1=O)C(=O)O [S-5-Iodowillardiine],Raw Signal,[3],55016
same,Z-score,[4],-0.1958
CCCNC(=O)NS(=O)(=O)c1ccc(Cl)cc1 [Chlorpropamide],Raw Signal,[3],58549
same,Z-score,[7],0.112
C[C@@H]1O[C@H](C[N+](C)(C)C)C[C@H]1O.[Cl-] (racemic) [(±)-Muscarine chloride],Raw Signal,[3],54548
same,Z-score,[7],0.02596
O=c1[nH]c2ccccc2n1CCCN1CCN(C(c2ccccc2)c2ccccc2)CC1 [Oxatomide],Raw Signal,[3],55062
same,Z-score,[7],0.1123
NS(=O)(=O)c1cccc2c1c([N+](=O)[O-])cc1nc([O-])c([O-])nc12.[Na+].[Na+] [NBQX disodium],Raw Signal,[3],52080
same,Z-score,[4],-0.3887
CC(NC(C)(C)C)C(=O)c1cccc(Cl)c1 (stereo not drawn) [Bupropion hydrochloride],Raw Signal,[3],56700
same,Z-score,[4],-0.2137
Cn1ccc2cc3c(cc21)CCN3C(=O)Nc1cccnc1 [SB 206553 hydrochloride],Raw Signal,[3],56981
same,Z-score,[7],0.186
CCCCC/C=C\C[C@@H](O)/C=C/c1cccc(C[C@@H](O)CCCCO)n1 [U-75302],Raw Signal,[5],63793
same,Z-score,[8],1.509
Clc1cccc(Cl)c1N=C1NCCN1 [Clonidine hydrochloride],Raw Signal,[5],54432
same,Z-score,[6],-0.6131
COc1cc([C@@H]2c3cc4c(cc3[C@@H](O[C@@H]3O[C@@H]5CO[C@@H](C)O[C@H]5[C@H](O)[C@H]3O)[C@H]3COC(=O)[C@H]23)OCO4)cc(OC)c1O [Etoposide],Raw Signal,[3],53339
same,Z-score,[4],-0.3713
"O=c1[nH]c2cc(Cl)ccc2c(O)c1-c1cccc(Oc2ccccc2)c1 [L-701,324]",Raw Signal,[5],49431
same,Z-score,[6],-0.8338
O=C(O)/C=C1\CCCc2ccccc2C1O (stereo not drawn) [NCS-382],Raw Signal,[5],49943
same,Z-score,[6],-0.7478
"CC(C)NCC(O)c1ccc(O)c(O)c1.Cl (single isomer, unassigned; (-)) [(-)-Isoproterenol hydrochloride]",Raw Signal,[5],50939
same,Z-score,[6],-0.5804
CC(N)(C(=O)O)c1ccc(C(=O)O)cc1 (racemic) [(±)-alpha-Methyl-4-carboxyphenylglycine],Raw Signal,[3],51961
same,Z-score,[4],-0.4087
CCCCC1C(=O)N(c2ccccc2)N(c2ccccc2)C1=O [Phenylbutazone],Z-score,[4],-0.2764
CN(C)c1ccc(/C=C2\C(=O)Nc3ccccc32)cc1 [SU 4312],Raw Signal,[1],60273
same,Z-score,[2],0.8255
O=c1c2ccccc2[se]n1-c1ccccc1 [Ebselen],Raw Signal,[3],54986
same,Z-score,[7],-0.03677
CCCN(CCC)CCc1c[nH]c2ccc(C(N)=O)cc12.O=C(O)/C=C\C(=O)O,Raw Signal,[1],60214
same,Z-score,[2],1.025
